Results on 27 compounds are retold here after patent US20100190747A1, “Fused ring compound and use thereof” (priority 2009, published 2010).

The test addresses T1, delta-5-desaturase (Rattus norvegicus, UniProt Q920R3).
T1 construct: the microsomal fraction of a rat river (10 μl), which had been diluted to 3 mg/ml; from tissue; host or cells: rat liver microsomal fraction
In words: Inhibitory activity on delta-5-desaturase (rat liver microsomal fraction, 14C-eicosatrienoic acid, TLC). Type of test: biochemical. The settings on record: test compound at 10 μM, room temperature, 120 minutes. On the procedure:
An inhibitory activity of a test compound on delta-5-desaturase was measured according to the method described herein below. To a DMSO solution of the test compound which had been previously prepared, secondary dilution was carried out by using a buffer (300 mM NaH2PO4 [pH 7.4], 450 mM KCl, 30 mM NaF, 9 mM MgCl2, 4.5 mM glutathione [reduced form], 0.3% BSA [fatty acid free, SIGMA]). This diluent compound (10 μl) was added in a 96-well deep well block made of polypropylene, and then the microsomal fraction of a rat river (10 μl), which had been diluted to 3 mg/ml by using a microsome buffer (10 mM Tris-HCl [pH 7.4], 1 mM EDTA, and 250 mM sucrose), was added thereto. The enzyme reaction was initiated by adding 10 μl of 9 mM NADH, 9 mM ATP, 0.9 mM CoA and 10 μCi/ml (8E,11E,14E)-(1-^14C)eicosa-8,11,14-trienoic acid (PerkinElmer Inc.). The enzyme reaction was carried out at room temperature for 120 minutes, and then terminated by addition of 2.5 M NaOH (10 μl). Upon the completion of the reaction, the plate was covered with plate seal and incubated overnight in a dry heater of which temperature was set at 55° C. for saponification. Based on Bligh & Dyer method which had been described in a known document, Canadian Journal of Biochemistry and Physiology (Can. J. Biochem. Physiol.), Vol. 37, page 911, 1959), the solvent extraction of fatty acid was carried out by adding 200 μl of formic acid:methanol:chloroform (1:6:3), keeping the mixture as a single layer for a while, stirring the mixture to a sufficient level, and adding 120 μl of pure water to separate the mixture into two layers. 10 μl of the bottom chloroform layer was spotted on a reverse phase TLC plate (RP-18, 1154230001, Merck Japan, Ltd.) and then developed with acetonitrile:pure water:acetic acid (95:4.5:0.5). The TLC plate obtained after drying was transferred to an Imaging Plate (Fuji Photo Film Co., Ltd.) for more than 5 hours. Detection was carried out by using BAS-5000 (Fuji Photo Film Co., Ltd.). Numerization of thus-obtained image was carried out by using Multi Gauge Ver 2.3 (Fuji Photo Film Co., Ltd.) and an inhibitory ratio (%) of the test compound at 10 μM on delta-5-desaturase was obtained.
A general note: Liver microsomes are vesicles of endoplasmic reticulum, rich in cytochrome P450 enzymes.

As a reminder, the inhibition is the change of the read-out against control, counted positive when it falls.

T1 sequence (Q920R3 whole entry): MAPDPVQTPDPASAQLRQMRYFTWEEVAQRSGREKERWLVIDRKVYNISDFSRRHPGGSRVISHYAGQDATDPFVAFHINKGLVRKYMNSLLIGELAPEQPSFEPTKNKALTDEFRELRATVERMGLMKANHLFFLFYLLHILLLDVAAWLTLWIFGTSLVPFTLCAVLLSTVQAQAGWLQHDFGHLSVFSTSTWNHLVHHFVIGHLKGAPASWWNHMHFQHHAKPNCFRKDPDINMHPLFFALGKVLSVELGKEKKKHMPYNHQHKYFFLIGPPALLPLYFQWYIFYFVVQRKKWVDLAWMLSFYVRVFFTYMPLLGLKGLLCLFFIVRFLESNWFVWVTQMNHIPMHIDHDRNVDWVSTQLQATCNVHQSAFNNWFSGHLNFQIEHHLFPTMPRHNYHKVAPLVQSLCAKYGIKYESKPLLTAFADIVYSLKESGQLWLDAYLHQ

As for `CCOc1ccc(-n2c(SCCCC(=O)NCCC#N)nc3cc[nH]c3c2=O)cc1` [Example 60, N-(2-cyanoethyl)-4-{[3-(4-ethoxyphenyl)-4-oxo-4,5-dihydro-3H-pyrrolo[3,2-d]pyrimidin-2-yl]sulfanyl}butanamide], the inhibition at 10 µM was 99%.

Turning to `CCOc1ccc(-n2c(SCCCS(=O)(=O)NCCC#N)nc3cc[nH]c3c2=O)cc1` [Example 62, N-(2-cyanoethyl)-3-{[3-(4-ethoxyphenyl)-4-oxo-4,5-dihydro-3H-pyrrolo[3,2-d]pyrimidin-2-yl]sulfanyl}propane-1-sulfonamide], the inhibition at 10 µM amounted to 102%.

With `CCOc1ccc(-n2c(SCCCC(=O)NCC#N)nc3cc[nH]c3c2=O)cc1` [Example 63, N-(cyanomethyl)-4-{[3-(4-ethoxyphenyl)-4-oxo-4,5-dihydro-3H-pyrrolo[3,2-d]pyrimidin-2-yl]sulfanyl}butanamide], the inhibition at 10 µM turned out to be 98%.

For `CCOc1ccc(-n2c(SCCCCC(=O)NCCC#N)nc3cc[nH]c3c2=O)cc1` [Example 65, N-(2-cyanoethyl)-5-{[3-(4-ethoxyphenyl)-4-oxo-4,5-dihydro-3H-pyrrolo[3,2-d]pyrimidin-2-yl]sulfanyl}pentanamide], the inhibition at 10 µM was found to be 97%.

On to `CCOc1ccc(-n2c(SCCCC(=O)N(C)CCC#N)nc3cc[nH]c3c2=O)cc1` [Example 66, N-(2-cyanoethyl)-4-{[3-(4-ethoxyphenyl)-4-oxo-4,5-dihydro-3H-pyrrolo[3,2-d]pyrimidin-2-yl]sulfanyl}-N-methylbutanamide], for which the inhibition at 10 µM is 101%.

For `N#CCCNC(=O)CCCSc1nc2cc[nH]c2c(=O)n1-c1ccc(OCC(F)(F)F)cc1` [Example 67], the inhibition at 10 µM turned out to be 96%.

For `CCOCCSc1nc2cc[nH]c2c(=O)n1-c1ccc(OCC(F)(F)F)cc1` [Example 74, 2-[(2-Ethoxyethyl)sulfanyl]-3-[4-(2,2,2-trifluoroethoxy)phenyl]-3,5-dihydro-4H-pyrrolo[3,2-d]pyrimidin-4-one], the inhibition at 10 µM stood at 101%.

As to `O=C(CCCSc1nc2cc[nH]c2c(=O)n1-c1ccc(OCC(F)(F)F)cc1)NCC(F)(F)F` [Example 75, 4-({4-Oxo-3-[4-(2,2,2-trifluoroethoxy)phenyl]-4,5-dihydro-3H-pyrrolo[3,2-d]pyrimidin-2-yl}sulfanyl)-N-(2,2,2-trifluoroethyl)butanamide], the inhibition at 10 µM turned out to be 99%.

`O=C(CCCSc1nc2cc[nH]c2c(=O)n1-c1ccc(OCC(F)(F)F)cc1)NC1CC1` [Example 76, N-cyclopropyl-4-({4-oxo-3-[4-(2,2,2-trifluoroethoxy)phenyl]-4,5-dihydro-3H-pyrrolo[3,2-d]pyrimidin-2-yl}sulfanyl)butanamide]: the inhibition at 10 µM was determined as 99%.

In the case of `O=C(CCCSc1nc2cc[nH]c2c(=O)n1-c1ccc(OCC(F)(F)F)cc1)N1CCCCC1` [Example 77, 2-[(4-Oxo-4-piperidin-1-ylbutyl)sulfanyl]-3-[4-(2,2,2-trifluoroethoxy)phenyl]-3,5-dihydro-4H-pyrrolo[3,2-d]pyrimidin-4-one], the inhibition at 10 µM was found to be 100%.

In the case of `COCCOCCCSc1nc2cc[nH]c2c(=O)n1-c1ccc(OCC(F)(F)F)cc1` [Example 78, 2-{[3-(2-Methoxyethoxy)propyl]sulfanyl}-3-[4-(2,2,2-trifluoroethoxy)phenyl]-3,5-dihydro-4H-pyrrolo[3,2-d]pyrimidin-4-one], the inhibition at 10 µM came out at 101%.

On to `CCOCCOCCSc1nc2cc[nH]c2c(=O)n1-c1ccc(OCC(F)(F)F)cc1` [Example 79, 2-{[2-(2-Ethoxyethoxy)ethyl]sulfanyl}-3-[4-(2,2,2-trifluoroethoxy)phenyl]-3,5-dihydro-4H-pyrrolo[3,2-d]pyrimidin-4-one], for which the inhibition at 10 µM came to 99%.

`CS(=O)(=O)CCCSc1nc2cc[nH]c2c(=O)n1-c1ccc(OCC(F)(F)F)cc1` [Example 80, 2-{[3-(Methylsulfonyl)propyl]sulfanyl}-3-[4-(2,2,2-trifluoroethoxy)phenyl]-3,5-dihydro-4H-pyrrolo[3,2-d]pyrimidin-4-one]: the inhibition at 10 µM was 98%.

With `CCOCCCSc1nc2cc[nH]c2c(=O)n1-c1ccc(OCC(F)(F)F)cc1` [Example 81, 2-[(3-Ethoxypropyl)sulfanyl]-3-[4-(2,2,2-trifluoroethoxy)phenyl]-3,5-dihydro-4H-pyrrolo[3,2-d]pyrimidin-4-one], the inhibition at 10 µM worked out at 97%.

Regarding `N#CCCNC(=O)CCCSc1nc2cc[nH]c2c(=O)n1-c1ccc(OCC2CCC2)cc1` [Example 82, N-(2-cyanoethyl)-4-({3-[4-(cyclobutylmethoxy)phenyl]-4-oxo-4,5-dihydro-3H-pyrrolo[3,2-d]pyrimidin-2-yl}sulfanyl)butanamide], the inhibition at 10 µM amounted to 101%.

In the case of `CC(CCSc1nc2cc[nH]c2c(=O)n1-c1ccc(OCC(F)(F)F)cc1)C(=O)NCCC#N` (stereo not drawn) [Example 85, N-(2-cyanoethyl)-2-methyl-4-({4-oxo-3-[4-(2,2,2-trifluoroethoxy)phenyl]-4,5-dihydro-3H-pyrrolo[3,2-d]pyrimidin-2-yl)sulfanyl)butanamide], the inhibition at 10 µM came to 99%.

Turning to `N#CCCCSc1nc2cc[nH]c2c(=O)n1-c1ccc(OCC(F)(F)F)cc1` [Example 86, 4-({4-Oxo-3-[4-(2,2,2-trifluoroethoxy)phenyl]-4,5-dihydro-3H-pyrrolo[3,2-d]pyrimidin-2-yl}sulfanyl)butanenitrile], the inhibition at 10 µM worked out at 99%.

`N#CCCCCSc1nc2cc[nH]c2c(=O)n1-c1ccc(OCC(F)(F)F)cc1` [Example 87, 5-({4-Oxo-3-[4-(2,2,2-trifluoroethoxy)phenyl]-4,5-dihydro-3H-pyrrolo[3,2-d]pyrimidin-2-yl}sulfanyl)pentanenitrile]: the inhibition at 10 µM worked out at 99%.

Turning to `N#CCCCCCSc1nc2cc[nH]c2c(=O)n1-c1ccc(OCC(F)(F)F)cc1` [Example 88, 6-({4-Oxo-3-[4-(2,2,2-trifluoroethoxy)phenyl]-4,5-dihydro-3H-pyrrolo[3,2-d]pyrimidin-2-yl}sulfanyl)hexanenitrile], the inhibition at 10 µM stood at 100%.

Take `N#CCCNC(=O)CCCSc1nc2cc[nH]c2c(=O)n1-c1ccc(OCCC(F)(F)F)cc1` [Example 90, N-(2-cyanoethyl)-4-({4-oxo-3-[4-(3,3,3-trifluoropropoxy)phenyl]-4,5-dihydro-3H-pyrrolo[3,2-d]pyrimidin-2-yl}sulfanyl)butanamide]: the inhibition at 10 µM came out at 99%.

As for `CCCCOc1ccc(-n2c(SCCCC(=O)NCCC#N)nc3cc[nH]c3c2=O)cc1` [Example 91, 4-{[3-(4-Butoxyphenyl)-4-oxo-4,5-dihydro-3H-pyrrolo[3,2-d]pyrimidin-2-yl]sulfanyl}-N-(2-cyanoethyl)butanamide], the inhibition at 10 µM was 100%.

Take `N#CCCNC(=O)CCCSc1nc2cc[nH]c2c(=O)n1-c1ccc(OCC2CC2)cc1` [Example 92, N-(2-cyanoethyl)-4-({3-[4-(cyclopropylmethoxy)phenyl]-4-oxo-4,5-dihydro-3H-pyrrolo[3,2-d]pyrimidin-2-yl}sulfanyl)butanamide]: the inhibition at 10 µM was found to be 102%.

Consider `CC1(COc2ccc(-n3c(SCCCC(=O)NCCC#N)nc4cc[nH]c4c3=O)cc2)CC1` [Example 93, N-(2-cyanoethyl)-4-[(3-{4-[(1-methylcyclopropyl)methoxy]phenyl}-4-oxo-4,5-dihydro-3H-pyrrolo[3,2-d]pyrimidin-2-yl)sulfanyl]butanamide], for which the inhibition at 10 µM came to 101%.

`N#CCCNC(=O)CCCSc1nc2cc[nH]c2c(=O)n1-c1ccc(OCC2CC2(F)F)cc1` (stereo not drawn) [Example 95, N-(2-cyanoethyl)-4-[(3-{4-[(2,2-difluorocyclopropyl)methoxy]phenyl}-4-oxo-4,5-dihydro-3H-pyrrolo[3,2-d]pyrimidin-2-yl)sulfanyl]butanamide]: the inhibition at 10 µM turned out to be 100%.

As to `O=C(CCCSc1nc2cc[nH]c2c(=O)n1-c1ccc(OCC(F)(F)F)cc1)N1CCC(O)C1` (stereo not drawn) [Example 97], the inhibition at 10 µM came to 100%.

In the case of `O=C(CCCSc1nc2cc[nH]c2c(=O)n1-c1ccc(OCC(F)(F)F)cc1)N1CCC(O)CC1` [Example 98, 2-{[4-(4-Hydroxypiperidin-1-yl)-4-oxobutyl]sulfanyl}-3-[4-(2,2,2-trifluoroethoxy)phenyl]-3,5-dihydro-4H-pyrrolo[3,2-d]pyrimidin-4-one], the inhibition at 10 µM was found to be 100%.

As to `CC(C)(O)CNC(=O)CCCSc1nc2cc[nH]c2c(=O)n1-c1ccc(OCC(F)(F)F)cc1` [Example 99, N-(2-hydroxy-2-methylpropyl)-4-({4-oxo-3-[4-(2,2,2-trifluoroethoxy)phenyl]-4,5-dihydro-3H-pyrrolo[3,2-d]pyrimidin-2-yl}sulfanyl)butanamide], the inhibition at 10 µM worked out at 94%.
